Reference: US20100093642A1, “NOVEL POLYPEPTIDES” (priority 2006, published 2010)
No end group written: not given here.

How the values were obtained:
L. anguillarum = assay type: cell-based, Listonella (Vibrio) anguillarum
Protocol: (§1) The Gram-negative bacteria Listonella (Vibrio) anguillarum, serotype O2 (FT 1801, also coded as AL 104/LFI 6004), originally isolated from Atlantic salmon by staff of the Norwegian Veterinary Institute (Oslo, Norway), Escherichia con (ATCC 25922), and the Gram-positive bacteria Staphylococcus aureus (ATCC 9144) and Corynebacterium glutamicum (ATCC 13032) were used as test organisms. All isolates were grown at room temperature in Mueller Hinton Broth (MBB; Difco Laboratories, Detroit, U.S.A).
(§2) The antibacterial activities of the obtained HPLC fractions were determined by continuous monitoring of bacterial growth with a Bioscreen C microbiology reader (Labsystems Oy, Helsinki, Finland). The test was performed in 100-well flat-bottomed honeycomb plates, in which […] of test fractions were incubated with 50 μl of a suspension of an actively growing culture of bacteria diluted to a starting concentration of 5×10^3 cells per well. The growth chamber was maintained at 20° C. during the incubation period. The absorbance was measured at 2 h intervals for 48 h by a turbidometric method with vertical light photometry and a wide band filter (420-580 nm), which is more insensitive to colour change in the sample compared to single wavelength detection. Cecropin P1(0.5 μg/ml) was used as a positive control during these experiments. Antibacterial activity was determined when the optical density (OD) of the growth control (bacteria plus water) reached an absorbance of approximately 0.3. Fractions were regarded as active when the OD was less than 50% of the growth control.
(§3) The polypeptides of the present invention were isolated and subsequently tested for activity. A serial dilution method was employed to examine the antibacterial activity of the peptides. Two Gram-negative bacteria, L. anguillarum and E. coli, and two Gram-positive bacteria, C. glutamicum and S. aureus, were chosen as test bacteria. The polypeptides of the present invention were active against both Gram-positive and Gram-negative bacteria (table 4).

E. coli = assay type: cell-based, Escherichia coli
Protocol: as §1, §2, §3

C. glutamicum = assay type: cell-based, Corynebacterium glutamicum
Protocol: as §1, §2, §3

S. aureus = assay type: cell-based, Staphylococcus aureus
Protocol: as §1, §2, §3

E. coli K-12 = experiment: Bacterial cell viability, lux luminescence and OD600, with or without LPS; assay type: cell-based, Escherichia coli; conditions: co-incubation with 2.5 μM Aeromonas salmonicida LPS
Description: (§4) To evaluate the effect of antimicrobial peptides on the viability of bacteria in a fast and reliable manner we used the lux CDABE operon from Photorhabdus luminescens as a reporter system in gram negative test bacteria and the modified luxABCDE operon in S. aureus (Vesterlund et al. 2004). Bacterial bioluminescence is directly dependent on metabolic activity, since reduction equivalents are needed to drive light emission. Any form of interruption of bacterial cell integrity or metabolism will therefore be detected as a reduction in light emission.
(§5) For the assay we used S. aureus (RN4220), E. coli K-12 and Salmonella enterica serovar typhimurium (ATCC 14028) transformed with the respective lux-operon containing plasmids (Vesterlund et al. 2004).
(§6) For each experiment a fresh colony was picked from Luria-Bertani plates supplemented with 10 μg/ml of erythromycin in case of S. aureus and with 100 μg/ml of ampicillin in case of E. coli and S. enterica serovar Typhimurium. Each colony was suspended in 5 ml of Müller-Hinton medium with appropriate antibiotics. The culture was incubated over night at 37° C. in a shaking incubator. The next morning 0.5 ml of this culture was transferred to 30 ml fresh MH medium in an Erlenmeyer-flask supplemented with the respective antibiotic. The flask was incubated (200 rpm shaking; 37° C.) until an OD600 of 0.5-0.8 was reached. The culture was then diluted to an OD600 of about 0.02-0.03 before transfer to the 96 well opaque plates with optical bottom (Packard ViewPlate) used for the assay.
The synthesized peptides were dissolved in water and aliquots frozen at −18° C. until use. Twofold dilutions of test peptides (final concentrations ranging from 0.31 to 80 μM) were directly prepared in 96 well microtiter plates in a volume of 10 μl in water. 90 μl is of indicator bacteria in MH medium were added directly to the prepared and pre-warmed (30 minutes at 37° C.) plate before starting the measurement in a Victor multiplate reader (Perkin Elmer) at 37° C. Both OD600 and luminescence in counts per second (cps) were followed over 5 hours in measuring intervals of 5 minutes. The plates where shaken before each measurement (20 sec.; 5 mm orbital shaking; 10 sec waiting). The growth curves and light emission curves were drawn and evaluated to determine the MIC for each indicator strain. The MIC was defined as the concentration of test compound causing more than 50% reduction in bioluminescence (cps) or optical density (OD600) after 5 hours, compared to the growth control. Cecropin P1 was used as positive control. […]
A second plate with an otherwise similar setup (as described for the luminescence assay in example 3) was prepared, but with addition of Aeromonas salmonicida LPS to the peptide dilutions before pre-warming. […]

[1] = system: Salmonella enterica serovar typhimurium (ATCC 14028); experiment: as above; assay type: cell-based; conditions: co-incubation with 2.5 μM Aeromonas salmonicida LPS
Description: as §4, §5, §6
The synthesized peptides were dissolved in water and aliquots frozen at −18° C. until use. Twofold dilutions of test peptides (final concentrations ranging from 0.31 to 80 μM) were directly prepared in 96 well microtiter plates in a volume of 10 μl in water. 90 μl is of indicator bacteria in MH medium were added directly to the prepared and pre-warmed (30 minutes at 37° C.) plate before starting the measurement in a Victor multiplate reader (Perkin Elmer) at 37° C. Both OD600 and luminescence in counts per second (cps) were followed over 5 hours in measuring intervals of 5 minutes. The plates where shaken before each measurement (20 sec.; 5 mm orbital shaking; 10 sec waiting). The growth curves and light emission curves were drawn and evaluated to determine the MIC for each indicator strain. The MIC was defined as the concentration of test compound causing more than 50% reduction in bioluminescence (cps) or optical density (OD600) after 5 hours, compared to the growth control. Cecropin P1 was used as positive control. The results (table 14a-b) confirm the results obtained in example 2, showing a pronounced antibacterial effect of the longest peptide fragments. […] The partial peptides P17 HC (1-20), both bromated and unbromated, inhibit growth only in higher concentrations.
A second plate with an otherwise similar setup (as described for the luminescence assay in example 3) was prepared, but with addition of Aeromonas salmonicida LPS to the peptide dilutions before pre-warming. The LPS end concentration in each well was approximately 2.5 μM.

E. coli (ATCC 25922) = assay type: cell-based, Escherichia coli
Protocol: (§7) The antibacterial activities of the different peptides were determined by continuous monitoring of bacterial growth with a Bioscreen C microbiology reader (Labsystems Oy, Helsinki, Finland). The test was performed in 100-well flat-bottomed honeycomb plates, in which 50 μl of test fractions were incubated with 50 μl of a suspension of an actively growing culture of bacteria diluted in Mueller Hinton medium to a starting concentration of 3×10^4 cells per ml. […] [NT] 13032) and S. aureus (ATCC 9144), were chosen as test bacteria. […] Polymyxin B (Sigma, St.

[2] = system: Listonella (Vibrio) anguillarum, serotype O2 (FT 1801); assay type: cell-based
Protocol: as §7

Pseudomonas aeruginosa = assay type: cell-based
Protocol: as §7

[3] = system: C. glutamicum (ATCC 13032); assay type: cell-based, Corynebacterium glutamicum
Protocol: as §7

S. aureus (ATCC 9144) = assay type: cell-based, Staphylococcus aureus; conditions: ATCC 9144
Protocol: as §7

Botrytis cinerea 101 = conditions: 48 h
Protocol: (§8) The various derivates of P17 (brominated and non-brominated) were tested for their ability to inhibit fungal growth of the yeast strains Saccaharomyces cerevisiae sp, Candida albicans (ATCC 10231) and Rodotorula sp., and the filamentous strains Botrytis cinerea 101, Penicillium rogveforti, and Fusarium sp. All strains, except C. albicans, were a gift from Prof. A. Tronsmo (The Norwegian University of Life Sciences, Ås, Norway). The fungi were cultivated on potato dextrose agar, supplemented with 2% glucose, at room temperature. Before antifungal testing, the fungi were dissolved in potato dextrose broth (Difco) at half-strength. Cell concentration was determined and adjusted after counting in a Bürker chamber. The filamentous fungi were filtered through a piece of cotton before counting. An aliquot of 50 μl of fungal spores (final concentration 2×10^5 spores per ml) were inoculated in microtiter plates (96 wells) along with 50 μl peptide solution. Peptides, dissolved in distilled water, were tested at final concentrations (two-fold dilutions) ranging from 50 μM to 0.1 μM. Cultures were grown in the dark (without shaking) and with a moist chamber at 25° C. (37° C. for C. albicans). Growth inhibition was determined microscopically after 48 h of incubation. MIC was determined as the lowest concentration of peptide resulting in 50% inhibition of visible growth.

[4] = system: Candida albicans (ATCC 10231); conditions: ATCC 10231, 48 h
Protocol: as §8

Saccharomyces cerevisiae = conditions: 48 h
Protocol: as §8

Penicillum rogveforti = experiment: Antifungal MIC; assay type: cell-based; conditions: filamentous fungi; more than 50% inhibition of visible growth, 48 h
Protocol: as §8

| Sequence | Minimal inhibitory concentration (MIC), L. anguillarum (L. anguillarum) | Minimal inhibitory concentration (MIC), E. coli (E. coli) | Minimal inhibitory concentration (MIC), C. glutamicum (C. glutamicum) | Minimal inhibitory concentration (MIC), S. aureus (S. aureus) | MIC, more than 50% reduction in optical density, E. coli, P + LPS (E. coli K-12; OD600, 5 hours) | MIC, more than 50% reduction in luminescence, E. coli, P + LPS (E. coli K-12; luminescence (cps), 5 hours) | MIC, more than 50% reduction in optical density, S. enterica, P + LPS ([1]; OD600, 5 hours) | MIC, more than 50% reduction in luminescence, S. enterica, P + LPS ([1]; luminescence (cps), 5 hours) | Minimal inhibitory concentration, E. coli (E. coli (ATCC 25922)) | Minimal inhibitory concentration, L. anguillarum [2] | Minimal inhibitory concentration, P. aeruginosa (Pseudomonas aeruginosa) | Minimal inhibitory concentration, C. glutamicum [3] | Minimal inhibitory concentration, S. aureus (S. aureus (ATCC 9144)) | Minimal inhibitory concentration (MIC), Botrytis cinerea (Botrytis cinerea 101) | Minimal inhibitory concentration (MIC), Candida albicans [4] | Minimal inhibitory concentration (MIC), Saccharomyces cerevisiae (Saccharomyces cerevisiae) | Minimal inhibitory concentration (MIC), Penicillum rogveforti (Penicillum rogveforti) |
| --- | --- | --- | --- | --- | --- | --- | --- | --- | --- | --- | --- | --- | --- | --- | --- | --- | --- |
| SWLSKTAKKLENSAKKRISEGIAIAIQGGPR [Cecropin P1, reference compound] | 1.2 µM | 1.2 µM | 1.6 µM | 12.5 µM | 20 µM | 20 µM | 10 µM | 10 µM |  |  |  |  |  |  |  |  |  |
| DLRGACAAAHAL [P17 LC] |  |  |  |  |  |  |  |  | >100 µM | >100 µM | >100 µM | >100 µM | >100 µM | >100 µM | >100 µM | >100 µM | >100 µM |
